# In article PMC7490411 (Signal Transduction and Targeted Therapy, 2020):
# Assays:
# [1] = test system: TRKB; experiment: KINOMEscan; type: binding; conditions: 1000 nM
# [2] = test system: p38-gamma; experiment: KINOMEscan; type: binding; conditions: 1000 nM
# [3] = test system: LRRK2(G2019S); experiment: KINOMEscan; type: binding; conditions: 1000 nM
# [4] = test system: TSSK1B; experiment: KINOMEscan; type: binding; conditions: 1000 nM
# [5] = test system: FLT3(D835H); experiment: KINOMEscan; type: binding; conditions: 1000 nM
# [6] = test system: ALK; experiment: KINOMEscan; type: binding; conditions: 1000 nM
# [7] = test system: PIK3CA(Q546K); experiment: KINOMEscan; type: binding; conditions: 1000 nM
# [8] = test system: PRKR; experiment: KINOMEscan; type: binding; conditions: 1000 nM
# [9] = test system: QSK; experiment: KINOMEscan; type: binding; conditions: 1000 nM
# [10] = test system: CAMK1D; experiment: KINOMEscan; type: binding; conditions: 1000 nM
# [11] = test system: CDK4; experiment: KINOMEscan; type: binding; conditions: 1000 nM
# [12] = test system: JNK2; experiment: KINOMEscan; type: binding; conditions: 1000 nM
# [13] = test system: CSNK2A1; experiment: KINOMEscan; type: binding; conditions: 1000 nM
# [14] = test system: MST1; experiment: KINOMEscan; type: binding; conditions: 1000 nM
# [15] = test system: NIM1; experiment: KINOMEscan; type: binding; conditions: 1000 nM
# [16] = test system: FLT3(D835V); experiment: KINOMEscan; type: binding; conditions: 1000 nM
# [17] = test system: WNK2; experiment: KINOMEscan; type: binding; conditions: 1000 nM
# [18] = test system: VPS34; experiment: KINOMEscan; type: binding; conditions: 1000 nM
# [19] = test system: ABL2; experiment: KINOMEscan; type: binding; conditions: 1000 nM
# [20] = test system: PIK3CA(E545A); experiment: KINOMEscan; type: binding; conditions: 1000 nM
# [21] = test system: NK cells co-seeded with SK-OV-3 cells; experiment: IFN-γ secretion ELISA, NK cells co-cultured with SK-OV-3 cells in presence of Herceptin; type: cell-based, human; conditions: SK-OV-3 co-culture; 0.1 to 3 μM
# Description: Peripheral blood mononuclear cells (PBMC) were separated from the blood of healthy donors by Ficoll density gradient centrifugation (Histopaque-1077, Sigma-Aldrich). Cells were enriched using a MACS® human NK cell negative-selection isolation kit (Miltenyi Biotec, Germany) according to the manufacturer’s instructions. Purified NK cells were cultured with 1000U/ml IL2 for 48h. […] The concentrations of interferon (IFN)-γ in cell culture supernatants obtained from three independent experiments were detected using commercial ELISA kits (absin, #abs510007), according to the manufacturer’s instructions. The human IFN-γ kit sensitivity was 7.8 pg/ml.
# [22] = test system: KIT-autoinhibited; experiment: KINOMEscan; type: binding; conditions: 1000 nM
# [23] = test system: EGFR(S752-I759del); experiment: KINOMEscan; type: binding; conditions: 1000 nM
# [24] = test system: TAK1; experiment: KINOMEscan; type: binding; conditions: 1000 nM
# [25] = test system: STK36; experiment: KINOMEscan; type: binding; conditions: 1000 nM
# [26] = test system: EGFR(L858R); experiment: KINOMEscan; type: binding; conditions: 1000 nM
# [27] = molecular target: T1, BMX (Homo sapiens, UniProt P51813); experiment: ADP-Glo biochemical kinase assay
# T1 construct: purchased Invitrogen (Carlsbad, CA, USA)
# T1 sequence (P51813 1-675): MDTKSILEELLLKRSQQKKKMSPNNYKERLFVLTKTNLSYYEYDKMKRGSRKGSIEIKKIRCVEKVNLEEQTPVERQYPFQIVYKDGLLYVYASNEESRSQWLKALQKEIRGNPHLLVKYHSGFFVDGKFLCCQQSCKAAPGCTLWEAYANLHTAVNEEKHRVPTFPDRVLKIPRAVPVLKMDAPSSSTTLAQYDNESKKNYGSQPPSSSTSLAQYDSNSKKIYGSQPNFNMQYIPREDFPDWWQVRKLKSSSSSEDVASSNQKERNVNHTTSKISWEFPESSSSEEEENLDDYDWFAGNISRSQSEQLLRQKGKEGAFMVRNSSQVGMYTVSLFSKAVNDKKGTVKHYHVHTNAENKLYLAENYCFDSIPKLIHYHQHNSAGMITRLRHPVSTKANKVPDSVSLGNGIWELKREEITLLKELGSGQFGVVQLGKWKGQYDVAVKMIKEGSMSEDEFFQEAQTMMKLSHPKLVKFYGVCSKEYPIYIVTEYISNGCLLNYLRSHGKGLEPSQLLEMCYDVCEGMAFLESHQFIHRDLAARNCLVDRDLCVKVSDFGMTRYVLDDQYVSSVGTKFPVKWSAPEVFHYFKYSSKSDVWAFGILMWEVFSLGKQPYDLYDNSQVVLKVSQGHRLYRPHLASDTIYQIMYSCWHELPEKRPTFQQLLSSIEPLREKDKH
# Description: (§1) The biochemical tests of BMX, BLK, JAK3, TXK, HER2, HER4, ITK, EGFR, and BTK were provided by Invitrogen (Carlsbad, CA, USA).
# [28] = molecular target: T2, EGFR (Homo sapiens, UniProt P00533); experiment: ADP-Glo biochemical kinase assay
# T2 construct: purchased Invitrogen (Carlsbad, CA, USA)
# T2 sequence (P00533 25-1210): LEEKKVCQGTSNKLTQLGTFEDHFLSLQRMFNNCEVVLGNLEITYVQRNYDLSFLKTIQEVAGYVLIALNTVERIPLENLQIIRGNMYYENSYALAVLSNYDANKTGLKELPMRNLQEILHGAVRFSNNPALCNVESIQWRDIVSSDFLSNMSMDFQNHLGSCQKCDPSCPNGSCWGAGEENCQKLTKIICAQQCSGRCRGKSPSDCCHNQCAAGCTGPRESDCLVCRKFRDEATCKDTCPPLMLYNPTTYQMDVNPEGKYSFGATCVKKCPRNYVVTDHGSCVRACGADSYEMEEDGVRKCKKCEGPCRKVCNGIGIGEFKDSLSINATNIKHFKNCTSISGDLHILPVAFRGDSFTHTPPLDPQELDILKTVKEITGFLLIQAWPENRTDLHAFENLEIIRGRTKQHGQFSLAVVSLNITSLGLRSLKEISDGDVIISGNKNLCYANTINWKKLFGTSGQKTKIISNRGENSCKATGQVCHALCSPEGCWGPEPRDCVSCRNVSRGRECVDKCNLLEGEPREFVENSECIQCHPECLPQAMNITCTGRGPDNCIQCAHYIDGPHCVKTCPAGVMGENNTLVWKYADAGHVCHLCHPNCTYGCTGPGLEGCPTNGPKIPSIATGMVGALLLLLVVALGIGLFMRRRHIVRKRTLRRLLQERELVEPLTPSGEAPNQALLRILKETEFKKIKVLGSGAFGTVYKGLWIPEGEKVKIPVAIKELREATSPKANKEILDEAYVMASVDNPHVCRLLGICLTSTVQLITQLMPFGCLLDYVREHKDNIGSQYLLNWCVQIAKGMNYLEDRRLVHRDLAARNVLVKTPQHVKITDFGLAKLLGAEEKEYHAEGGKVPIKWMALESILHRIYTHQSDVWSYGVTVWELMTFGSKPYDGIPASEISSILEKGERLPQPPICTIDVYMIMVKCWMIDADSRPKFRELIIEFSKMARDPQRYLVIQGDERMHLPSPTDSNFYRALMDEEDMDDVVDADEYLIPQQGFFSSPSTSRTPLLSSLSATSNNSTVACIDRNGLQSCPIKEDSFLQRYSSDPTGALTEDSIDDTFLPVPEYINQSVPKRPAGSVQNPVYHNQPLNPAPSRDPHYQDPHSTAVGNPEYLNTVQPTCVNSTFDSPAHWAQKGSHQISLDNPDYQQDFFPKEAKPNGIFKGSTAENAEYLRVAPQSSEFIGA
# Description: as §1
# [29] = molecular target: T3, BLK (Homo sapiens, UniProt P51451); experiment: ADP-Glo biochemical kinase assay
# T3 construct: purchased Invitrogen (Carlsbad, CA, USA)
# T3 sequence (P51451 whole entry): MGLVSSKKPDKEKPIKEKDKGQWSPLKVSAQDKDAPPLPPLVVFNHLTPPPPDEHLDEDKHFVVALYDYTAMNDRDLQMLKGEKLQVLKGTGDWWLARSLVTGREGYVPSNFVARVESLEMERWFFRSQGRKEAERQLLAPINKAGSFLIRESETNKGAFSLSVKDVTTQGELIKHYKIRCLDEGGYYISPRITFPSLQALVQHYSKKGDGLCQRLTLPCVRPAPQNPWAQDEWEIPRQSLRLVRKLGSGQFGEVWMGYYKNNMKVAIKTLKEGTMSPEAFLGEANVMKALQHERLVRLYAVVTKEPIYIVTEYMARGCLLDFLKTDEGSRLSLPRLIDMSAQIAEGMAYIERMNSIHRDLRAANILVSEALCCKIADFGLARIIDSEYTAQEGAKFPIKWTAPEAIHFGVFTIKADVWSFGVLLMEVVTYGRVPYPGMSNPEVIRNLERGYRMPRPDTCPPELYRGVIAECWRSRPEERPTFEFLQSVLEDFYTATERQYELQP
# Description: as §1
# [30] = molecular target: T4, HER2 (Homo sapiens, UniProt P04626); experiment: ADP-Glo biochemical kinase assay
# T4 construct: purchased Invitrogen (Carlsbad, CA, USA)
# T4 sequence (P04626 23-1255): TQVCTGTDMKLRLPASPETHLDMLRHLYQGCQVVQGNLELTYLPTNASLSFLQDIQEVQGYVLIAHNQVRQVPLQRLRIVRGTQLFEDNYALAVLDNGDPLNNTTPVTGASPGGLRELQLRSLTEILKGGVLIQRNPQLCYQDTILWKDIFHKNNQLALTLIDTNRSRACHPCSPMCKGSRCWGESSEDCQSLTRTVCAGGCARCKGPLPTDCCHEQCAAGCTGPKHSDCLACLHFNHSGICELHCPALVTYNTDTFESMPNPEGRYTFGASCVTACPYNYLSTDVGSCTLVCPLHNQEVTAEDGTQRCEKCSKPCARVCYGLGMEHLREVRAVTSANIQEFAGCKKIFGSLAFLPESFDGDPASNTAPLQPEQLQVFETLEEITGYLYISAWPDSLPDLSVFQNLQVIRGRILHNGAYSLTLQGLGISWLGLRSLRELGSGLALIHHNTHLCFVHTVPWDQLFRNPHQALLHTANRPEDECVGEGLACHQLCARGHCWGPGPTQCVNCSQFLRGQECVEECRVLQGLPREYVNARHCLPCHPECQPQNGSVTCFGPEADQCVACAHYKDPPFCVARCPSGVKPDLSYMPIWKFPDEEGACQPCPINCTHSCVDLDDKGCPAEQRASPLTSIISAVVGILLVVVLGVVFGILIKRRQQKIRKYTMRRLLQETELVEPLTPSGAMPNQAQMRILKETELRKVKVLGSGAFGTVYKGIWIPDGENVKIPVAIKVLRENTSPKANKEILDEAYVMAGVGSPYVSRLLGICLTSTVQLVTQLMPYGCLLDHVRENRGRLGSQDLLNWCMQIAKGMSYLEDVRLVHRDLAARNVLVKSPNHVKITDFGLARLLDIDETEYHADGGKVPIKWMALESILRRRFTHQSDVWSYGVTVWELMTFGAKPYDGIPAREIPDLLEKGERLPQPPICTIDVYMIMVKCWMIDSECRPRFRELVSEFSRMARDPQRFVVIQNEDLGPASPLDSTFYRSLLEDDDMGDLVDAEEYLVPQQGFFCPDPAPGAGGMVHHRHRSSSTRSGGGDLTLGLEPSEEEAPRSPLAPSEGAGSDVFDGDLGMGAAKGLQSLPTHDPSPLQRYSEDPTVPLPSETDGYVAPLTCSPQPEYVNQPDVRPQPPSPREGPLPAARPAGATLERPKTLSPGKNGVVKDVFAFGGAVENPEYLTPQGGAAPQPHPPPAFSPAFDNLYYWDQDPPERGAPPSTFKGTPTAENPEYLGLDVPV
# Description: as §1
# [31] = molecular target: T5, HER4 (Homo sapiens, UniProt Q15303); experiment: ADP-Glo biochemical kinase assay
# T5 construct: purchased Invitrogen (Carlsbad, CA, USA)
# T5 sequence (Q15303 26-1308): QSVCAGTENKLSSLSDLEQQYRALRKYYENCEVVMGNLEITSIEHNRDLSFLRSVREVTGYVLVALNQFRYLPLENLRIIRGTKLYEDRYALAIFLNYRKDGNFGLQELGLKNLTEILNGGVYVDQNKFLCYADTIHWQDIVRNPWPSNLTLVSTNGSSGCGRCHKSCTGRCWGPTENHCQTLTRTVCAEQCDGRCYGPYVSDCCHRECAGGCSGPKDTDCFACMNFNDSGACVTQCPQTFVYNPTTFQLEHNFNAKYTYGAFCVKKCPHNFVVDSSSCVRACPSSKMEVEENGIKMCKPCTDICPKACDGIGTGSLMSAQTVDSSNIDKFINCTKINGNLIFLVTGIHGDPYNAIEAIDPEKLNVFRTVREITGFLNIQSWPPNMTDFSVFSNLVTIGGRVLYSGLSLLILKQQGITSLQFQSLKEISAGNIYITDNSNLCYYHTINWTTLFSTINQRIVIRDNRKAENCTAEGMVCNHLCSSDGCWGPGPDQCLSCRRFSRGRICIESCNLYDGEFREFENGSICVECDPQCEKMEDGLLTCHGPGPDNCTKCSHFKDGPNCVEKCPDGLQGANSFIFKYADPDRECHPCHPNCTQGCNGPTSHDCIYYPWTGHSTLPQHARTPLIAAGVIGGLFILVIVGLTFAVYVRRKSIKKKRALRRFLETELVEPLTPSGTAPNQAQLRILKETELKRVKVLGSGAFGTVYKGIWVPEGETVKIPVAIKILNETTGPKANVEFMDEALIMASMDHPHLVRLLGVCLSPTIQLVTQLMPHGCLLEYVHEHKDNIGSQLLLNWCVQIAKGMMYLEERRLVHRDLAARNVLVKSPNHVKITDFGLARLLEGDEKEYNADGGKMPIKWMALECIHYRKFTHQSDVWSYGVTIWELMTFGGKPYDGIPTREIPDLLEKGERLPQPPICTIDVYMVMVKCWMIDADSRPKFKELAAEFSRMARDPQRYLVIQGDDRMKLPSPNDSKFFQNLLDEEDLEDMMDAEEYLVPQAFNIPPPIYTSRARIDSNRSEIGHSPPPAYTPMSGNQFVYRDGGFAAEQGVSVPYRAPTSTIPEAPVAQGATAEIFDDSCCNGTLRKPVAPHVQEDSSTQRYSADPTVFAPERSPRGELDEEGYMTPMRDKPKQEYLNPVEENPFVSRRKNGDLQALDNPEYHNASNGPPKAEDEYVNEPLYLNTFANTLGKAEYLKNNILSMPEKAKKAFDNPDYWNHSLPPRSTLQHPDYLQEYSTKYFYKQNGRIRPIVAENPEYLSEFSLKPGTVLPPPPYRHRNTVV
# Description: as §1
# [32] = test system: AURKB; experiment: KINOMEscan; type: binding; conditions: 1000 nM
# [33] = test system: MERTK; experiment: KINOMEscan; type: binding; conditions: 1000 nM
# [34] = test system: MST2; experiment: KINOMEscan; type: binding; conditions: 1000 nM
# [35] = test system: MARK3; experiment: KINOMEscan; type: binding; conditions: 1000 nM
# [36] = test system: PIK3CA(M1043I); experiment: KINOMEscan; type: binding; conditions: 1000 nM
# [37] = test system: EPHA4; experiment: KINOMEscan; type: binding; conditions: 1000 nM
# [38] = test system: LZK; experiment: KINOMEscan; type: binding; conditions: 1000 nM
# [39] = test system: EPHA2; experiment: KINOMEscan; type: binding; conditions: 1000 nM
# [40] = test system: FLT3-autoinhibited; experiment: KINOMEscan; type: binding; conditions: 1000 nM
# [41] = test system: HIPK3; experiment: KINOMEscan; type: binding; conditions: 1000 nM
smiles,measurement,setting,value
C=CC(=O)Nc1cc(Nc2cc(-c3cccc(NC(=O)c4cc5c(s4)CCCC5)c3C)cn(C)c2=O)ccc1N1CCN(CC)CC1 [CHMFL-BTK-85],Percent Control,[1],100%
same,Percent Control,[2],62%
same,Percent Control,[3],100%
same,Percent Control,[4],88%
same,Percent Control,[5],100%
same,Percent Control,[6],86%
same,Percent Control,[7],100%
same,Percent Control,[8],49%
same,Percent Control,[9],100%
same,Percent Control,[10],100%
same,Percent Control,[11],100%
same,Percent Control,[12],100%
same,Percent Control,[13],94%
same,Percent Control,[14],100%
same,Percent Control,[15],100%
same,Percent Control,[16],11%
same,Percent Control,[17],87%
same,Percent Control,[18],100%
same,Percent Control,[19],88%
same,Percent Control,[20],65%
same,inhibition of Herceptin-induced IFN-γ secretion in NK cells,[21],no apparent inhibition
same,Percent Control,[22],100%
same,Percent Control,[23],90%
same,Percent Control,[24],100%
same,Percent Control,[25],99%
same,Percent Control,[26],59%
same,IC50,[27]; read-out: IC50 against BMX,0.12 ± 0.0037 µM
same,selectivity over BMX,[27]; vs BTK,10 fold
same,IC50,[28]; read-out: IC50 against EGFR,> 10 µM
same,selectivity over EGFR,[28]; vs BTK,more than 1000 fold
same,IC50,[29]; read-out: IC50 against BLK,> 10 µM
same,selectivity over BLK,[29]; vs BTK,more than 1000 fold
same,IC50,[30]; read-out: IC50 against HER2,> 10 µM
same,selectivity over HER2,[30]; vs BTK,more than 1000 fold
same,IC50,[31]; read-out: IC50 against HER4,> 10 µM
same,selectivity over HER4,[31]; vs BTK,more than 1000 fold
same,Percent Control,[32],100%
same,Percent Control,[33],84%
same,Percent Control,[34],88%
same,Percent Control,[35],100%
same,Percent Control,[36],71%
same,Percent Control,[37],100%
same,Percent Control,[38],100%
same,Percent Control,[39],87%
same,Percent Control,[40],100%
same,Percent Control,[41],100%
